Blank lines part the entries; values can stand above or below the compound they belong to.
Assays:
Type in all cases: biochemical
SRPK1 = target: T1, SRPK1 (Homo sapiens, UniProt Q96SB4); test: Radioactive (33P-ATP) filter-binding kinase assay, IC50
T1 construct: MRC Protein Phosphorylation Unit, University of Dundee (screening panel)

MAPKAP-K3 = target: T2, MAPKAP-K3 (Homo sapiens, UniProt Q16644); test: as above
T2 construct: MRC Protein Phosphorylation Unit, University of Dundee (screening panel)
Description: (§1) Selected compounds were screened against a panel of mammalian kinases routinely run in the MRC Protein Phosphorylation Unit at the University of Dundee (www.kinase-screen.mrc.ac.uk).[21] Compounds were supplied in DMSO and screened in duplicates at 100 μM concentration using a radioactive (^33P-ATP) filter-binding-assay. For hit validation and all subsequent IC50 determinations, selected compounds were solubilized in DMSO at a top concentration of 51 mM and serially diluted to achieve 10-point titration of final assay concentrations from 1 mM to 30 nM. All IC50 determination assays were done in duplicate and the IC50 values were calculated using Prism (GraphPad Software, Inc.). All biochemical assays were run below the Km^app for the ATP for each enzyme allowing comparison of inhibition across the panel.

Src = target: T3, Src (Homo sapiens, UniProt P12931); test: as above
T3 construct: MRC Protein Phosphorylation Unit, University of Dundee (screening panel)
Description: as §1

CK2 = target: T4, CK2 (Homo sapiens, UniProt P68400); test: as above
T4 construct: MRC Protein Phosphorylation Unit, University of Dundee (screening panel)
Description: as §1

RSK2 = target: T5, RSK2 (Homo sapiens, UniProt P51812); test: as above
T5 construct: MRC Protein Phosphorylation Unit, University of Dundee (screening panel)
Description: as §1

TAK1 = target: T6, TAK1 (Homo sapiens, UniProt O43318); test: as above
T6 construct: MRC Protein Phosphorylation Unit, University of Dundee (screening panel)
Description: as §1

IGF-1R = target: T7, IGF-1R (Homo sapiens, UniProt P08069); test: as above
T7 construct: MRC Protein Phosphorylation Unit, University of Dundee (screening panel)
Description: as §1

Aurora A = target: T8, Aurora A (Homo sapiens, UniProt O14965); test: as above
T8 construct: MRC Protein Phosphorylation Unit, University of Dundee (screening panel)
Description: as §1

GCK = target: T9, GCK (Homo sapiens, UniProt Q12851); test: as above
T9 construct: MRC Protein Phosphorylation Unit, University of Dundee (screening panel)
Description: as §1

FGF-R1 = target: T10, FGF-R1 (Homo sapiens, UniProt P11362); test: as above
T10 construct: MRC Protein Phosphorylation Unit, University of Dundee (screening panel)
Description: as §1

CDK2 = CDK2 (Homo sapiens, UniProt P24941); test: as above
[1] = tested on: panel of 117 protein kinases; test: Kinase panel screen at 100 μM, radioactive filter-binding assay; details: for number of kinases inhibited with >40% inhibition: panel of 117 kinases; for number of kinases of the docking panel for which activity was found: only kinases in the docking panel
Description: (§2) A subset of library compounds was tested against a panel of 117 protein kinases as proof of concept study (Figure 4). The compounds were chosen to cover all six core fragments and to be fragment-sized (MW < 300 Da), therefore having a higher probability of inhibiting a kinase compared to more elaborated library compounds with the potential draw-back of having only moderate binding affinity.[25] […] According to these definitions, all assayed compounds were at least moderately active against at least one kinase (Figure 5a).
as §1

CLK2 = CLK2 (Homo sapiens, UniProt P49760); test: Radioactive (33P-ATP) filter-binding kinase assay, IC50
CHK2 = target: T11, CHK2 (Homo sapiens, UniProt O96017); test: as above
T11 construct: MRC Protein Phosphorylation Unit, University of Dundee (screening panel)
Description: as §1

YES1 = target: T12, YES1 (Homo sapiens, UniProt P07947); test: as above
T12 construct: MRC Protein Phosphorylation Unit, University of Dundee (screening panel)
Description: as §1

HER4 = target: T13, HER4 (Homo sapiens, UniProt Q15303); test: as above
T13 construct: MRC Protein Phosphorylation Unit, University of Dundee (screening panel)
Description: as §1

VEG-FR = VEG-FR (Homo sapiens, UniProt P35968); test: as above
SGK1 = target: T14, SGK1 (Homo sapiens, UniProt O00141); test: as above
T14 construct: MRC Protein Phosphorylation Unit, University of Dundee (screening panel)
Description: as §1

GSK-3β = GSK-3β (Homo sapiens, UniProt P49841); test: as above
EPH-B3 = target: T15, EPH-B3 (Homo sapiens, UniProt P54753); test: as above
T15 construct: MRC Protein Phosphorylation Unit, University of Dundee (screening panel)
Description: as §1

MSK1 = target: T16, MSK1 (Homo sapiens, UniProt O75582); test: Kinase panel screen at 100 μM, radioactive filter-binding assay
T16 construct: MRC Protein Phosphorylation Unit, University of Dundee (screening panel)
Description: as §2, §1

MKK1 = target: T17, MKK1 (Homo sapiens, UniProt Q02750); test: as above
T17 construct: MRC Protein Phosphorylation Unit, University of Dundee (screening panel)
Description: as §2, §1

PIM3 = target: T18, PIM3 (Homo sapiens, UniProt Q86V86); test: Radioactive (33P-ATP) filter-binding kinase assay, IC50
T18 construct: MRC Protein Phosphorylation Unit, University of Dundee (screening panel)
Description: as §1

PIM1 = target: T19, PIM1 (Homo sapiens, UniProt P11309); test: as above
T19 construct: MRC Protein Phosphorylation Unit, University of Dundee (screening panel)
Description: as §1

T6 sequence (O43318 1-303 limits assumed): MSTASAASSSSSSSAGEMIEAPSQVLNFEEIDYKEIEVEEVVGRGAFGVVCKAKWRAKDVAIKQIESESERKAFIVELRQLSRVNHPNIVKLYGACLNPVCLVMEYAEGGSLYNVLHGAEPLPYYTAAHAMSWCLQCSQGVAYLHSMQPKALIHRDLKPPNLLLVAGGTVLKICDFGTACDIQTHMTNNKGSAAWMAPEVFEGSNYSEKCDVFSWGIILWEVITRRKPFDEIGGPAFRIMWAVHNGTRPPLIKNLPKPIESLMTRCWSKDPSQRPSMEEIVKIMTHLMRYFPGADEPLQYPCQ
T10 sequence (P11362 22-822, species assumed): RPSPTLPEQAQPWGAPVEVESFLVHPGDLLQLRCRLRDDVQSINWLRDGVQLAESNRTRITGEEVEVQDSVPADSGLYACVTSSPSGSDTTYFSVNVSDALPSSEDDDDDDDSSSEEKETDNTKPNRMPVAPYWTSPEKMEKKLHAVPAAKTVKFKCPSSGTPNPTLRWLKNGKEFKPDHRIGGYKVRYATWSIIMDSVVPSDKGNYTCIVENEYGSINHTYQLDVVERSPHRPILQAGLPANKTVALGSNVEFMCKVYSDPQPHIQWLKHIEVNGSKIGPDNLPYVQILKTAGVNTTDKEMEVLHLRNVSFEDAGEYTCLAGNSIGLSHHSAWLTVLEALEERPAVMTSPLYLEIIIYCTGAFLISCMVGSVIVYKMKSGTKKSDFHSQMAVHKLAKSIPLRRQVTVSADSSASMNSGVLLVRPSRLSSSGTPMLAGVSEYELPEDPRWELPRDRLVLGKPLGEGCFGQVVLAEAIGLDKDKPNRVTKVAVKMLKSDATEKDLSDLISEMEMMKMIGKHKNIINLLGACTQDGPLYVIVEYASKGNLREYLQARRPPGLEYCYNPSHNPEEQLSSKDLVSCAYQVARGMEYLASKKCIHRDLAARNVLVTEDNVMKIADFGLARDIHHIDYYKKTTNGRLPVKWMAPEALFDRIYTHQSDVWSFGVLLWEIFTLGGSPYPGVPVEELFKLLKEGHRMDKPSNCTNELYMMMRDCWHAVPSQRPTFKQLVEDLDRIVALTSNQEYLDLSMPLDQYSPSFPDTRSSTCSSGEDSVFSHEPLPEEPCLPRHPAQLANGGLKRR
T4 sequence (P68400 whole entry): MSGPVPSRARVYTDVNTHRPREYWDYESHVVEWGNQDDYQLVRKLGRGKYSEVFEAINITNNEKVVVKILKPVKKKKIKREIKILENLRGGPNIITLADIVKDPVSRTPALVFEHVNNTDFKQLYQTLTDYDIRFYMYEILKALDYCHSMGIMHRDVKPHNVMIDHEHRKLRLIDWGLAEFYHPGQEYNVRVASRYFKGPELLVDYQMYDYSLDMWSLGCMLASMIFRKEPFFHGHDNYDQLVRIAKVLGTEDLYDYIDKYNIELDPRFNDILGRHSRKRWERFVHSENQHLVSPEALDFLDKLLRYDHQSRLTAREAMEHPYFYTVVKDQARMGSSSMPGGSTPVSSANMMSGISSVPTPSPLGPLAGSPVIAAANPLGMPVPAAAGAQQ
T7 sequence (P08069 31-1367, species assumed): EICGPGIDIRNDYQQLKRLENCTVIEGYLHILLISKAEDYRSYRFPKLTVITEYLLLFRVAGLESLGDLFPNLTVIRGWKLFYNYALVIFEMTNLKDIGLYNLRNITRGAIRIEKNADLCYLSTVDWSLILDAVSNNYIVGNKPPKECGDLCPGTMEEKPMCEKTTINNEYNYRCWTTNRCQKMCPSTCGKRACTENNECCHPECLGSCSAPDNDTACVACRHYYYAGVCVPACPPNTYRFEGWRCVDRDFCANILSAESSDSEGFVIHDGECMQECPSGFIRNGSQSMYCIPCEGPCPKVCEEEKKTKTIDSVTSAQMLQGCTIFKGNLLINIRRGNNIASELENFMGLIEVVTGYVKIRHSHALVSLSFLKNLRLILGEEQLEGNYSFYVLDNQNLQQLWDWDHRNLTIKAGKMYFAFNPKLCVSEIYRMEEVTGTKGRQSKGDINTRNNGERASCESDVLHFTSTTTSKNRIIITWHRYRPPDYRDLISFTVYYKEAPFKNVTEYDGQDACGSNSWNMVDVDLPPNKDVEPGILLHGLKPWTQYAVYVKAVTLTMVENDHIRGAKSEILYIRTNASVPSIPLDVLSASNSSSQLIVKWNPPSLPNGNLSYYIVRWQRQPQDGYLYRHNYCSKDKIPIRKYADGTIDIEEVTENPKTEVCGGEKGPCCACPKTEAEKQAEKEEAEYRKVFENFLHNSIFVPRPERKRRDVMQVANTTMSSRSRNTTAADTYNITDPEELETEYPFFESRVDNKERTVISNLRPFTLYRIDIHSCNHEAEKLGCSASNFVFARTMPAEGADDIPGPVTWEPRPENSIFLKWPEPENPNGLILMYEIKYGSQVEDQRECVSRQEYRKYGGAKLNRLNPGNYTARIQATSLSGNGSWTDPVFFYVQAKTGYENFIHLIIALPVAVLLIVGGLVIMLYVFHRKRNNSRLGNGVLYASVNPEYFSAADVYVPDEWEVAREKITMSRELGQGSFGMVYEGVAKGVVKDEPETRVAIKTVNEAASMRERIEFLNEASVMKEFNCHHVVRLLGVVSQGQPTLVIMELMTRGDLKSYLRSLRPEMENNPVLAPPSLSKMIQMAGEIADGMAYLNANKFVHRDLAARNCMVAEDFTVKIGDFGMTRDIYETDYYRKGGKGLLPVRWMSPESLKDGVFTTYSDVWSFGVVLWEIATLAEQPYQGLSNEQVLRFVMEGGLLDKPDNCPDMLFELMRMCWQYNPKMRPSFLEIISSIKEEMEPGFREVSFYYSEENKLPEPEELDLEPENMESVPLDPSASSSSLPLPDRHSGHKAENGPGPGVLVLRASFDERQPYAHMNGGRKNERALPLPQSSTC
T3 sequence (P12931 whole entry, species assumed): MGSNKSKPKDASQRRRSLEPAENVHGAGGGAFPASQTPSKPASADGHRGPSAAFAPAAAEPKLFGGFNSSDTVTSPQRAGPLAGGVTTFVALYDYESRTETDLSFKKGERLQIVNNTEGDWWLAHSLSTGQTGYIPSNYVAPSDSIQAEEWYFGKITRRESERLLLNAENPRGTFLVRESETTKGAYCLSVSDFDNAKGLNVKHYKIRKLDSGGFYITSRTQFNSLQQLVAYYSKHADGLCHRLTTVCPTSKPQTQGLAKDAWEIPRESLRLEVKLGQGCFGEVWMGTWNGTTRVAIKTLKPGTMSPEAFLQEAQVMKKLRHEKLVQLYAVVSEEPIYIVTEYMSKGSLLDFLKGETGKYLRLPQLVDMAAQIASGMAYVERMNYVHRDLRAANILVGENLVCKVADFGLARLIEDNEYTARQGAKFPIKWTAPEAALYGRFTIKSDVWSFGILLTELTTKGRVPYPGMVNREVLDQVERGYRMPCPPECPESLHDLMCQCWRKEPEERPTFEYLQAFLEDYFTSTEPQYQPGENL
T9 sequence (Q12851 whole entry): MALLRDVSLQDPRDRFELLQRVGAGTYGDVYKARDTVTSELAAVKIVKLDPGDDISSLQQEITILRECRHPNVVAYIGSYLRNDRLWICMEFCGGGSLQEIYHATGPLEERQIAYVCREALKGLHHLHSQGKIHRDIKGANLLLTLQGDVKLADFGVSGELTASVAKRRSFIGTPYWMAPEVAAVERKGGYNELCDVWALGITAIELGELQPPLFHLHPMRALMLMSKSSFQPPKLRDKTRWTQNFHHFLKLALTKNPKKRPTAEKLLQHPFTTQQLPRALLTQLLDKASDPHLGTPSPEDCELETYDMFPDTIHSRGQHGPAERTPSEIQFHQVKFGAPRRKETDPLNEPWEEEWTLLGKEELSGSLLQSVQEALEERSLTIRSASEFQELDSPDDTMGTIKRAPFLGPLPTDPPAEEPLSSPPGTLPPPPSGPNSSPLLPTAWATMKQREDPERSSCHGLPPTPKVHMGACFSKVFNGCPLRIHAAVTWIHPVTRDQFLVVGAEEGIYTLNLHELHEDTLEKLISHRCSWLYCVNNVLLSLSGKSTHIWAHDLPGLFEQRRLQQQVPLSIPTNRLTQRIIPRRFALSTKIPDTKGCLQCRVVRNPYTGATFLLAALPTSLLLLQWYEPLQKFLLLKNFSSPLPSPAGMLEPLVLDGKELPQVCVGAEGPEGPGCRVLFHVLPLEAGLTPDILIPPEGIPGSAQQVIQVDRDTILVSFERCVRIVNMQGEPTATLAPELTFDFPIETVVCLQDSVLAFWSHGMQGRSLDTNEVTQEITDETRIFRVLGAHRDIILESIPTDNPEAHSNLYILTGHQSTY
Chain of GSK-3β (P49841 whole entry, species assumed): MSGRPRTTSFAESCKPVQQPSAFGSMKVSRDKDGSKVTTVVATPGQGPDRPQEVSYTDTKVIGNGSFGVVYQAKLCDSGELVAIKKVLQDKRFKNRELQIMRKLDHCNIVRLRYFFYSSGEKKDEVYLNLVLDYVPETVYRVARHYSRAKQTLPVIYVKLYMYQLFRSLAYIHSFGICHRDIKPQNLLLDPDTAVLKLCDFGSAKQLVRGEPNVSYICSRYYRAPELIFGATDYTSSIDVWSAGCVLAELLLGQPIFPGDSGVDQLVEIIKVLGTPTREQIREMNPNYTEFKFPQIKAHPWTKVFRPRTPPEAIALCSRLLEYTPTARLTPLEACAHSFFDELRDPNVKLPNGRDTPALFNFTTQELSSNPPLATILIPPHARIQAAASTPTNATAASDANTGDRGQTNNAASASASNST
T14 sequence (O00141 whole entry, species assumed): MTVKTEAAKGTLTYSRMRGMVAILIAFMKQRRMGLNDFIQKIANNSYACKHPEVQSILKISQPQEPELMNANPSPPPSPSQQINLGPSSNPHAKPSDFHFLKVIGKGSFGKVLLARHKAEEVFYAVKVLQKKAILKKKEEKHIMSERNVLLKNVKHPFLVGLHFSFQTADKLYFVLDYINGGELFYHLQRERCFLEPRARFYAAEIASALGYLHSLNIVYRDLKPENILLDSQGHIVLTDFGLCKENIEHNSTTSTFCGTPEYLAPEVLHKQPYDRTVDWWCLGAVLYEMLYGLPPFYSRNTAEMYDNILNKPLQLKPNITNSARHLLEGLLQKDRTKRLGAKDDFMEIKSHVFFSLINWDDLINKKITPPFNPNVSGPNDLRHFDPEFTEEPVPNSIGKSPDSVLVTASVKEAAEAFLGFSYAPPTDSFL

- LE (SRPK1): 0.28 kcal/mol heavy atom
- LE (MAPKAP-K3): 0.33 kcal/mol heavy atom
- LE (Src): 0.28 kcal/mol heavy atom
- LE (CK2): 0.33 kcal/mol heavy atom
- LE (RSK2): 0.26 kcal/mol heavy atom
Structure (SMILES): CC1CN(c2nc3ccccn3c(=O)c2N)CC(C)O1 (centres unmarked) [A1]

- LE (TAK1): 0.32 kcal/mol heavy atom
- LE (CK2): 0.27 kcal/mol heavy atom
- LE (IGF-1R): 0.30 kcal/mol heavy atom
- LE (Aurora A): 0.26 kcal/mol heavy atom
- LE (GCK): 0.38 kcal/mol heavy atom
- LE (FGF-R1): 0.25 kcal/mol heavy atom
- LE (CDK2): 0.33 kcal/mol heavy atom
- number of kinases inhibited with >40% inhibition [1]: 55
- LE (CLK2): 0.32 kcal/mol heavy atom
Structure (SMILES): Nc1cnc2c(-c3c(F)cccc3F)cccn2c1=O [A2]

- LE (TAK1): 0.43 kcal/mol heavy atom
- LE (Src): 0.41 kcal/mol heavy atom
- LE (CHK2): 0.42 kcal/mol heavy atom
- LE (YES1): 0.41 kcal/mol heavy atom
- LE (IGF-1R): 0.40 kcal/mol heavy atom
- LE (HER4): 0.41 kcal/mol heavy atom
- LE (GCK): 0.46 kcal/mol heavy atom
- LE (VEG-FR): 0.39 kcal/mol heavy atom
- number of kinases of the docking panel for which activity was found [1]: 31
- number of kinases inhibited with >40% inhibition [1]: 63
Structure (SMILES): Nc1nc2cnc(-c3ccccc3)cn2n1 [B1]

Structure (SMILES): CC(=O)Nc1nc2cnc(-c3c(C)cccc3C)cn2n1 [B4]
- number of kinases of the docking panel for which activity was found [1]: did not inhibit any kinase in the docking panel

- LE (SGK1): 0.28 kcal/mol heavy atom
- LE (GSK-3β): 0.32 kcal/mol heavy atom
Structure (SMILES): COc1ccc(-c2cc3c(=O)[nH]cnc3s2)cc1OC [C2]

- LE (EPH-B3): 0.33 kcal/mol heavy atom
- LE (FGF-R1): 0.29 kcal/mol heavy atom
Structure (SMILES): CC(C)(C)Nc1c(C2CC2)nc2[nH]cnn12 [D1]

- inhibition at 100 µM (MSK1): > 40%
- number of kinases inhibited with >40% inhibition [1]: one
Structure (SMILES): O=C(Nc1cnc2[nH]cnn2c1=O)c1ccccc1 [E1]

- inhibition at 100 µM (MKK1): > 40%
- number of kinases inhibited with >40% inhibition [1]: one
Structure (SMILES): O=c1c(NC(=S)NCc2ccccc2)cnc2[nH]ccn12 [F2]

- LE (PIM3): 0.40 kcal/mol heavy atom
- LE (PIM1): 0.38 kcal/mol heavy atom
Structure (SMILES): O=c1cc(-c2ccccc2F)nc2[nH]ccn12 [F3]
